biological target: T1, ETA Receptor (Rattus norvegicus, UniProt P26684); experiment: [125I]ET-1 binding to membranes from MMQ cells (ETA receptor binding assay, Table 4); conditions: test compound at 1 μM; 0.1 nM [125I]ET-1, MMQ cell membranes, 4 hours at 25° C.
T1 construct: endogenous in cells; host or cells: MMQ rat pituitary cells (membranes)
T1 sequence (P26684 21-426): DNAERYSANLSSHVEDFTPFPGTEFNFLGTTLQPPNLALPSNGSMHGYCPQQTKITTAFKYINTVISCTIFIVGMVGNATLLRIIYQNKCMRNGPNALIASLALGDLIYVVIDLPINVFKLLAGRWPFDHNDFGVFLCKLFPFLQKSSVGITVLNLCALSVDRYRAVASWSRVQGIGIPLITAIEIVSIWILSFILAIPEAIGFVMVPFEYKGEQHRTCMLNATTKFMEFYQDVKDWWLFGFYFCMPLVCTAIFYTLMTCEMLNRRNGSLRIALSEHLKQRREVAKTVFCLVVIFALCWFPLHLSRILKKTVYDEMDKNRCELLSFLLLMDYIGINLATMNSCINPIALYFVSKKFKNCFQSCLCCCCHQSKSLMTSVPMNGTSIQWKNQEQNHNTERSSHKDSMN
Procedure: Preparation of Membranes from MMQ Cells:
MMQ [MacLeod/MacQueen/Login cell line (prolactin secreting rat pituitary cells)] cells from 150 mL culture flasks were collected by centrifugation (1000×g for 10 min) and then homogenized in 25 mL of 10 mM Hepes (pH 7.4) containing 0.25 M sucrose and protease inhibitors [3 mM EDTA, 0.1 mM PMSF, and 5 μg/mL Pepstatin A] by a micro ultrasonic cell disrupter (Kontes). The mixture was centrifuged at 1000×g for 10 min. The supernatant was collected and centrifuged at 60,000×g for 60 min. The precipitate was resuspended in 20 mM Tris, pH 7.4 containing the above protease inhibitors and centrifuged again. The final pellet was resuspended in 20 mM Tris, pH 7.4 containing protease inhibitors and stored at −80° C. until used. Protein content was determined by the Bio-Rad dye-binding protein assay.
Binding assays were performed in 96-well microtiter plates pretreated with 0.1% BSA. […] After incubation, unbound ligands were separated from bound ligands by a vacuum filtration method using glass-fiber filter strips in PHD cell harvesters (Cambridge Technology, Inc., MA), followed by washing the filter strips with saline (1 mL) for three times. Nonspecific binding was determined in the presence of 1 μM ET-1.

Row | SMILES | % Inhibition of ETA at 1 μM
1 | CCCN(CCN1CC(c2ccc3c(c2)OCO3)C(C(=O)O)C1c1ccc(OC)cc1)S(=O)(=O)CCOC (stereo not drawn) [Example 125, trans,trans-1-(2-(N-Propyl-N-(2-methoxyethylsulfonyl)amino)ethyl)-2-(4-methoxyphenyl)-4-(1,3-benzodioxol-5-yl)pyrrolidine-3-carboxylic acid] | 97.2%
2 | CCCN(CCN1CC(c2ccc3c(c2)OCO3)C(C(=O)O)C1c1ccc(OC)cc1)S(=O)(=O)CCOCC (stereo not drawn) [Example 126, trans,trans-1-(2-(N-Propyl-N-(2-ethoxyethylsulfonyl)amino)ethyl)-2-(4-methoxyphenyl)-4-(1,3-benzodioxol-5-yl)pyrrolidine-3-carboxylic acid] | 91.7%
3 | CCCN(CCN1CC(c2ccc3c(c2)OCO3)C(C(=O)O)C1c1ccc(OC)cc1)S(=O)(=O)c1cccc2c(N(C)C)cccc12 (stereo not drawn) [Example 127, trans,trans-1-(2-(N-Propyl-N-(5-dimethylamino-1-naphthylsulfonyl)amino)ethyl)-2-(4-methoxyphenyl)-4-(1,3-benzodioxol-5-yl)pyrrolidine-3-carboxylic acid] | 91.4%
4 | CCCN(CCN1CC(c2ccc3c(c2)OCO3)C(C(=O)O)C1c1ccc(OC)cc1)S(=O)(=O)CC (stereo not drawn) [Example 128, trans,trans-1-(2-(N-Propyl-N-(ethylsulfonyl)amino)ethyl)-2-(4-methoxyphenyl)-4-(1,3-benzodioxol-5-yl)pyrrolidine-3-carboxylic acid] | 95.4%
5 | CCCN(CCN1CC(c2ccc3c(c2)OCO3)C(C(=O)O)C1c1ccc(OC)cc1)S(=O)(=O)c1ccc(C)cc1 (stereo not drawn) [Example 129, trans,trans-1-(2-(N-Propyl-N-(4-methylbenzenesulfonyl)amino)ethyl)-2-(4-methoxyphenyl)-4-(1,3-benzodioxol-5-yl)pyrrolidine-3-carboxylic acid] | 100.1%
6 | CCCCN(CCCC)C(=O)CN1CC(c2ccc3c(c2)OCO3)C(C(=O)O)C1c1cccnc1 (stereo not drawn) [Example 130, trans,trans-1-(N,N-Di(n-butyl)aminocarbonylmethyl)-2-(3-pyridyl)-4-(1,3-benzodioxol-5-yl)pyrrolidine-3-carboxylic acid] | 91.0%
7 | CCCCS(=O)(=O)N(CCC)CCN1CC(c2ccc3c(c2)OCO3)C(C(=O)O)C1c1ccc(OC)cc1 (stereo not drawn) [Example 131, trans,trans-1-(2-(N-Propyl-N-(n-butylsulfonyl)amino)ethyl)-2-(4-methoxyphenyl)-4-(1,3-benzodioxol-5-yl)pyrrolidine-3-carboxylic acid] | 89.5%
8 | CCCN(CCN1CC(c2ccc3c(c2)OCO3)C(C(=O)O)C1c1ccc(OC)cc1)S(=O)(=O)c1ccc(Cl)cc1 (stereo not drawn) [Example 132, trans,trans-1-(2-(N-Propyl-N-(4-chlorobenzenesulfonyl)amino)ethyl)-2-(4-methoxyphenyl)-4-(1,3-benzodioxol-5-yl)pyrrolidine-3-carboxylic acid] | 90.0%
9 | CCCN(CCN1CC(c2ccc3c(c2)OCO3)C(C(=O)O)C1c1ccc(OC)cc1)S(=O)(=O)Cc1ccccc1 (stereo not drawn) [Example 133, trans,trans-1-(2-(N-Propyl-N-(benzylsulfonyl)amino)ethyl)-2-(4-methoxyphenyl)-4-(1,3-benzodioxol-5-yl)pyrrolidine-3-carboxylic acid] | 88.6%
10 | CCCN(CCN1CC(c2ccc3c(c2)OCO3)C(C(=O)O)C1c1ccc(OC)cc1)S(=O)(=O)c1ccc(F)cc1 (stereo not drawn) [Example 134, trans,trans-1-(2-(N-Propyl-N-(4-fluorobenzenesulfonyl)amino)ethyl)-2-(4-methoxyphenyl)-4-(1,3-benzodioxol-5-yl)pyrrolidine-3-carboxylic acid] | 92.2%
11 | CCCN(C)C(=O)CN1CC(c2cccc3occc23)C(C(=O)O)C1c1ccc(OC)cc1 (stereo not drawn) [Example 135B, trans,trans-1-(N-Methyl-N-propylaminocarbonylmethyl)-2-(4-methoxyphenyl)-4-(4-benzofuranyl)pyrrolidine-3-carboxylic acid] | 77.7%
12 | CCCN(C)C(=O)CN1CC(c2ccc3ccoc3c2)C(C(=O)O)C1c1ccc(OC)cc1 (stereo not drawn) [Example 136, trans,trans-1-(N-Methyl-N-propylaminocarbonylmethyl)-2-(4-methoxyphenyl)-4-(6-benzofuranyl)pyrrolidine-3-carboxylic acid] | 79.4%
13 | CCCCN(CCCC)C(=O)CN1CC(c2cccc3occc23)C(C(=O)O)C1c1ccc(OC)cc1 (stereo not drawn) [Example 138, trans,trans-1-(N,N-Di(n-butyl)aminocarbonylmethyl)-2-(4-methoxyphenyl)-4-(4-benzofuranyl)pyrrolidine-3-carboxylic acid] | 83.0%
14 | CCCCN(CCCC)C(=O)CN1CC(c2cccc3occc23)C(C(=O)O)C1c1ccc(OC)cc1 (stereo not drawn) [Example 139, trans,trans-1-(N,N-Di(n-butyl)aminocarbonylmethyl)-2-(4-methoxyphenyl)-4-(4-benzofuranyl)pyrrolidine-3-carboxylic acid] | 98.6%
15 | CCCCN(CCCC)C(=O)CN1CC(c2ccc3ccoc3c2)C(C(=O)O)C1c1ccc(OC)cc1 (stereo not drawn) [Example 140, trans,trans-1-(N,N-Di(n-butyl)aminocarbonylmethyl)-2-(4-methoxyphenyl)-4-(6-benzofuranyl)pyrrolidine-3-carboxylic acid] | 106.3%
16 | CCCCN(CCCC)C(=O)CN1CC(c2ccc3c(c2)OCC3)C(C(=O)O)C1c1ccc(OC)cc1 (stereo not drawn) [Example 141, trans,trans-1-(N,N-Di(n-butyl)aminocarbonylmethyl)-2-(4-methoxyphenyl)-4-(6-benzo-2,3-dihydrofuranyl)pyrrolidine-3-carboxylic acid] | 92.8%
17 | CCCN(C)C(=O)CN1CC(c2ccc3c(c2)CCC3)C(C(=O)O)C1c1ccc(OC)cc1 (stereo not drawn) [Example 142B, trans,trans-1-(N-Methyl-N-propylaminocarbonylmethyl)-2-(4-methoxyphenyl)-4-(5-indanyl)pyrrolidine-3-carboxylic acid] | 78.7%
18 | CCCN(C)C(=O)CN1CC(c2ccc3cc[nH]c3c2)C(C(=O)O)C1c1ccc(OC)cc1 (stereo not drawn) [Example 143, trans,trans-1-(N-Methyl-N-propylaminocarbonylmethyl)-2-(4-methoxyphenyl)-4-(6-indolyl)pyrrolidine-3-carboxylic acid] | 20.6%
19 | CCCN(C)C(=O)CN1CC(c2ccc(F)c(F)c2)C(C(=O)O)C1c1ccc(OC)cc1 (stereo not drawn) [Example 144, trans,trans-1-(N-Methyl-N-propylaminocarbonylmethyl)-2-(4-methoxyphenyl)-4-(3,4-difluorophenyl)pyrrolidine-3-carboxylic acid] | 78.2%
20 | CCCN(C)C(=O)CN1CC(c2ccccc2)C(C(=O)O)C1c1ccc(OC)cc1 (stereo not drawn) [Example 145, trans,trans-1-(N-Methyl-N-propylaminocarbonylmethyl)-2-(4-methoxyphenyl)-4-(phenyl)pyrrolidine-3-carboxylic acid] | 32.4%
21 | CCCN(C)C(=O)CN1CC(c2ccc(O)cc2)C(C(=O)O)C1c1ccc(OC)cc1 (stereo not drawn) [Example 146, trans,trans-1-(N-Methyl-N-propylaminocarbonylmethyl)-2-(4-methoxyphenyl)-4-(4-hydroxyphenyl)pyrrolidine-3-carboxylic acid] | 25.0%
22 | CCCN(C)C(=O)CN1CC(c2ccc(OC)cc2OC)C(C(=O)O)C1c1ccc(OC)cc1 (stereo not drawn) [Example 147, trans,trans-1-(N-Methyl-N-propylaminocarbonylmethyl)-2-(4-methoxyphenyl)-4-(2,4-dimethoxyphenyl)pyrrolidine-3-carboxylic acid] | 73.0%
23 | CCCCN(CCCC)C(=O)CN1CC(c2ccc3c(c2)CCO3)C(C(=O)O)C1c1ccc(OC)cc1 (stereo not drawn) [Example 148, trans,trans-1-(N,N-Di(n-butyl)aminocarbonylmethyl)-2-(4-methoxyphenyl)-4-(5-benzo-2,3-dihydrofuranyl)pyrrolidine-3-carboxylic acid] | 94.7%
24 | CCCCN(CCCC)C(=O)CN1CC(c2ccc(OC)cc2)C(C(=O)O)C1c1ccc(OC)cc1 (stereo not drawn) [Example 149, trans,trans-1-(N,N-Di(n-butyl)aminocarbonylmethyl)-2-(4-methoxyphenyl)-4-(4-methoxyphenyl)pyrrolidine-3-carboxylic acid] | 84.6%
25 | CCCCN(CCCC)C(=O)CN1CC(c2ccc(F)c(F)c2)C(C(=O)O)C1c1ccc(OC)cc1 (stereo not drawn) [Example 150, trans,trans-1-(N,N-Di(n-butyl)aminocarbonylmethyl)-2-(4-methoxyphenyl)-4-(3,4-difluorophenyl)pyrrolidine-3-carboxylic acid] | 93.6%
